Test system: Saccharomyces cerevisiae wild type strain BY4743
Assay: AF1 metabolite analysis (GC-MS, LC-MS) of yeast cells treated with antifungal drugs
Assay type: cell-based
Details: for # Compounds perturbed: 2x MIC, two hours

In the case of `OC(Cn1cncn1)(Cn1cncn1)c1ccc(F)cc1F` [Fluconazole], the “# Compounds perturbed” value (P < 0.05) is reported as 2, the “# Compounds perturbed” value (P < 0.1) is reported as 6 and the “Fold Change, alanine” value (platform GC) is reported as 0.3084. The “Fold Change, asparagine” value (platform GC) was 0.3999, the “Fold Change, aspartic acid” value (platform GC) was 0.4337 and the “Fold Change, campesterol” value (platform GC) was 0. The “Fold Change, desmosterol” value (platform GC) was 0, the “Fold Change, disaccaride1” value (platform GC) was 0.3883 and the “Fold Change, disaccaride2” value (platform GC) was 0.1517. The “Fold Change, disaccaride3” value (platform GC) was 0.5803, the “Fold Change, ergosterol” value (platform GC) was 0.948 and the “Fold Change, fucosterol” value (platform GC) was 6.665. For the same compound, the “Fold Change, glutamine” value (platform GC) was 0.5242, the “Fold Change, glycanopyrose” value (platform GC) was 1.202 and the “Fold Change, glycerol” value (platform GC) was 0.2187. The “Fold Change, glycine” value (platform GC) was −0.1037, the “Fold Change, hexadecanoic acid” value (platform GC) was 0.1343 and the “Fold Change, iso citric acid” value (platform GC) was 0.3923. The “Fold Change, isoleucine” value (platform GC) was 0.391, the “Fold Change, lanosterol” value (platform GC) was 8.462 and the “Fold Change, leucine” value (platform GC) was 0.3387. The “Fold Change, lysine” value (platform GC) was 0.3412, the “Fold Change, malic acid” value (platform GC) was 0.3975 and the “Fold Change, mevalonic acid lactone” value (platform GC) was 0.2333. For the same compound, the “Fold Change, octadecanoic acid” value (platform GC) was 0.082, the “Fold Change, oleic acid” value (platform GC) was −0.3073 and the “Fold Change, ornithine2” value (platform GC) was 0.4473. For the same compound, the “Fold Change, ornithine3” value (platform GC) was 0.2647, the “Fold Change, palmiteliadic acid” value (platform GC) was −0.08867 and the “Fold Change, phenylalanine” value (platform GC) was 0.2774. For the same compound, the “Fold Change, phosphate” value (platform GC) was −0.508, the “Fold Change, pyrimidine” value (platform GC) was 0.2457 and the “Fold Change, 2-ketobutyric acid” value (platform nLC) was −0.9992. The “Fold Change, 2-ketoglutaric” value (platform nLC) was −0.9995, the “Fold Change, 3-indolylacetonitri” value (platform nLC) was −0.9998 and the “Fold Change, 4-methylcatechol” value (platform nLC) was 0. For the same compound, the “Fold Change, 4aminobutyrate/dimg” value (platform nLC) was 0.1384, the “Fold Change, 5hydroxyLtryptophan” value (platform nLC) was 0 and the “Fold Change, 6-benzylaminopurine” value (platform nLC) was 0. For the same compound, the “Fold Change, DLaminoadipic acid” value (platform nLC) was 0.443, the “Fold Change, NacetylDglucosamine” value (platform nLC) was 0 and the “Fold Change, NacetylLglutamate” value (platform nLC) was 0.1369. For the same compound, the “Fold Change, NacetylLornithine” value (platform nLC) was 0, the “Fold Change, abscisic acid” value (platform nLC) was 0 and the “Fold Change, aconitic acid” value (platform nLC) was 0.6483. For the same compound, the “Fold Change, adenine” value (platform nLC) was 0, the “Fold Change, adenosine” value (platform nLC) was 0 and the “Fold Change, alanine” value (platform nLC) was 0.399. For the same compound, the “Fold Change, allantoic acid” value (platform nLC) was 0.2392, the “Fold Change, allantoin” value (platform nLC) was 0.3942 and the “Fold Change, anthranilic acid” value (platform nLC) was 0. The “Fold Change, arginine” value (platform nLC) was 0.6484, the “Fold Change, argininosuccinate” value (platform nLC) was 0 and the “Fold Change, asparagine” value (platform nLC) was 0.3545. The “Fold Change, aspartic” value (platform nLC) was 0.4993, the “Fold Change, benzoic acid” value (platform nLC) was 0 and the “Fold Change, biotin” value (platform nLC) was 0.3455. The “Fold Change, caffeic acid” value (platform nLC) was −0.4711, the “Fold Change, catechol” value (platform nLC) was 0 and the “Fold Change, cinnamic acid” value (platform nLC) was 0. For the same compound, the “Fold Change, citricanoic/itaconi.” value (platform nLC) was 0, the “Fold Change, citrulline” value (platform nLC) was 0 and the “Fold Change, coumaric acid” value (platform nLC) was 0. For the same compound, the “Fold Change, cytidine” value (platform nLC) was −0.7969, the “Fold Change, cytosine” value (platform nLC) was 0 and the “Fold Change, decanoic acid” value (platform nLC) was 0.1846. The “Fold Change, diaminopimelic acid” value (platform nLC) was 0, the “Fold Change, dihydrofolic acid” value (platform nLC) was 0 and the “Fold Change, estrone” value (platform nLC) was 0. For the same compound, the “Fold Change, farnesol” value (platform nLC) was 0, the “Fold Change, folic acid” value (platform nLC) was 0 and the “Fold Change, fumaric/3m2oxobutan” value (platform nLC) was 0.6009. The “Fold Change, gallic acid” value (platform nLC) was 0.5071, the “Fold Change, gibberellic” value (platform nLC) was 0 and the “Fold Change, glucosamine6PO4” value (platform nLC) was −0.9951. For the same compound, the “Fold Change, glutamic/acetylseri” value (platform nLC) was 0.3842, the “Fold Change, glutamine/lysine” value (platform nLC) was 0.3309 and the “Fold Change, guanine” value (platform nLC) was 0. For the same compound, the “Fold Change, guanosine” value (platform nLC) was −0.993, the “Fold Change, histidine” value (platform nLC) was 0 and the “Fold Change, homogentisic/uric” value (platform nLC) was 0. The “Fold Change, hydrocortisone” value (platform nLC) was 0, the “Fold Change, hypoxanthine” value (platform nLC) was 0.7757 and the “Fold Change, indole3pyruvic acid” value (platform nLC) was 0. The “Fold Change, inostol/glucos/sorb” value (platform nLC) was −0.4744, the “Fold Change, isocitric/citric/qu” value (platform nLC) was 1.457 and the “Fold Change, jasmonic acid” value (platform nLC) was 0. For the same compound, the “Fold Change, kinetin” value (platform nLC) was 0, the “Fold Change, lactic acid” value (platform nLC) was −0.0439 and the “Fold Change, lauric acid” value (platform nLC) was 0.3906. The “Fold Change, leucine/isoleucine/” value (platform nLC) was 0.3306, the “Fold Change, luteolin” value (platform nLC) was 0 and the “Fold Change, malic acid” value (platform nLC) was 0.4366. For the same compound, the “Fold Change, malonic acid” value (platform nLC) was 0, the “Fold Change, menthol*” value (platform nLC) was 0.04758 and the “Fold Change, methionine” value (platform nLC) was 0. The “Fold Change, nicotinic acid” value (platform nLC) was 2.443, the “Fold Change, nopaline” value (platform nLC) was 0.3432 and the “Fold Change, oleic acid” value (platform nLC) was −0.01684. The “Fold Change, ornithine” value (platform nLC) was 0.3508, the “Fold Change, orotic acid” value (platform nLC) was 0 and the “Fold Change, palmitic acid” value (platform nLC) was −0.0233. The “Fold Change, phenylalanine” value (platform nLC) was 0.1527, the “Fold Change, phenylpyruvic acid” value (platform nLC) was 0 and the “Fold Change, phosphoenolpyruvate” value (platform nLC) was 0. For the same compound, the “Fold Change, pinitol” value (platform nLC) was 0, the “Fold Change, pipecolic acid” value (platform nLC) was 0.2901 and the “Fold Change, porphobilinogen” value (platform nLC) was 0. For the same compound, the “Fold Change, proline” value (platform nLC) was 0.4164, the “Fold Change, pyridoxine” value (platform nLC) was −0.04201 and the “Fold Change, 4-aminobenzoic acid” value (platform pLC) was 0. The “Fold Change, 4-methylcatechol” value (platform pLC) was 0, the “Fold Change, 4ambutyrate/dimglyc” value (platform pLC) was −0.4383 and the “Fold Change, 5hydroxyLtryptophan” value (platform pLC) was 0. The “Fold Change, 6benzylaminopurine” value (platform pLC) was 0, the “Fold Change, DL-aminoadipic acid” value (platform pLC) was 0.1155 and the “Fold Change, NacetylDglucosamine” value (platform pLC) was 0. The “Fold Change, NacetylLglutamate” value (platform pLC) was 0, the “Fold Change, NacetylLornithine” value (platform pLC) was 0.1584 and the “Fold Change, abscisic acid” value (platform pLC) was 0. The “Fold Change, adenine” value (platform pLC) was −0.09439, the “Fold Change, adenosine” value (platform pLC) was 0 and the “Fold Change, alanine/sarcosine” value (platform pLC) was 0.1269. For the same compound, the “Fold Change, allantoic acid” value (platform pLC) was 0, the “Fold Change, anthranilic acid” value (platform pLC) was 0 and the “Fold Change, arginine” value (platform pLC) was 0.1179. The “Fold Change, argininosuccinate” value (platform pLC) was 0, the “Fold Change, asparagine” value (platform pLC) was 0.3192 and the “Fold Change, aspartic acid” value (platform pLC) was 0.214. The “Fold Change, biotin” value (platform pLC) was 0, the “Fold Change, caffeine” value (platform pLC) was 0 and the “Fold Change, citric acid TME” value (platform pLC) was 0. The “Fold Change, citrulline” value (platform pLC) was 0.08252, the “Fold Change, cytidine” value (platform pLC) was 0 and the “Fold Change, cytosine” value (platform pLC) was 0. For the same compound, the “Fold Change, diaminopimelic acid” value (platform pLC) was 0, the “Fold Change, dihydrofolic acid” value (platform pLC) was 0 and the “Fold Change, dipicolinic acid” value (platform pLC) was 0. The “Fold Change, folic acid” value (platform pLC) was 0, the “Fold Change, glucosamine” value (platform pLC) was 0 and the “Fold Change, glucosamine6PO4” value (platform pLC) was 0. The “Fold Change, glutamate” value (platform pLC) was −0.06179, the “Fold Change, glutamine/lysine” value (platform pLC) was 0.2242 and the “Fold Change, glutathione” value (platform pLC) was −0.05832. The “Fold Change, guanosine” value (platform pLC) was −0.9981, the “Fold Change, histidine” value (platform pLC) was 0 and the “Fold Change, hydrocortisone” value (platform pLC) was 0. For the same compound, the “Fold Change, hypoxanthine” value (platform pLC) was 0.1298, the “Fold Change, itaconic acid dimes” value (platform pLC) was 0 and the “Fold Change, kinetin” value (platform pLC) was 0. For the same compound, the “Fold Change, leucine/isoleucine/” value (platform pLC) was 0.1638, the “Fold Change, luteolin” value (platform pLC) was 0 and the “Fold Change, mannitol” value (platform pLC) was 0.152. For the same compound, the “Fold Change, methionine” value (platform pLC) was −0.2906, the “Fold Change, mevalonic lactone” value (platform pLC) was −0.5175 and the “Fold Change, niacinamide” value (platform pLC) was 0. For the same compound, the “Fold Change, nicotinic acid” value (platform pLC) was −0.7982, the “Fold Change, nopaline” value (platform pLC) was 0 and the “Fold Change, ornithine” value (platform pLC) was 0.4775. For the same compound, the “Fold Change, phenylalanine” value (platform pLC) was −0.1809, the “Fold Change, phosphoenolpyruvate” value (platform pLC) was 0 and the “Fold Change, pipecolic acid” value (platform pLC) was 0.2583. The “Fold Change, progesterone” value (platform pLC) was 0, the “Fold Change, proline” value (platform pLC) was 0.2075 and the “Fold Change, pyridoxine” value (platform pLC) was −0.3831.

Reference: patent publication US20030229451A1, “Methods and systems for analyzing complex biological systems” (priority 2001, published 2003)
